Measurements from ChEMBL document CHEMBL1201862, “PubChem BioAssay data set” (2004).
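48-hour exposure; five concentrations; linearly interpolated endpoints. The concentration for 50% growth inhibition is given as GI50.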 Active and inactive are the calls of the source. Cut-off read from the data, not from the text of the source: active = GI50 up to about 1.1 µM and inactive = higher.

Columns and labels:
Test in all cases: inhibition of tumour cell growth, NCI panel, 48 h
IGROV-1 = tested on: IGROV-1
DMS-114 = tested on: DMS-114
UACC-62 = tested on: UACC-62
HOP-92 = tested on: HOP-92
HCC 2998 = tested on: HCC 2998
RXF 393 = tested on: RXF 393
DLD-1 = tested on: DLD-1
HOP-62 = tested on: HOP-62
SK-MEL-28 = tested on: SK-MEL-28
LXFL 529 = tested on: LXFL 529
CCRF-CEM = tested on: CCRF-CEM
HT-29 = tested on: HT-29
SNB-19 = tested on: SNB-19
KM-20L2 = tested on: KM-20L2
OVCAR-8 = tested on: OVCAR-8
SF-268 = tested on: SF-268
786-0 = tested on: 786-0
SK-OV-3 = tested on: SK-OV-3
SW-620 = tested on: SW-620
OVCAR-5 = tested on: OVCAR-5
UO-31 = tested on: UO-31
M19-MEL = tested on: M19-MEL
OVCAR-4 = tested on: OVCAR-4
SF-539 = tested on: SF-539
CAKI-1 = tested on: CAKI-1
SR = tested on: SR
A549 = tested on: A549
HOP-18 = tested on: HOP-18
EKVX = tested on: EKVX
SK-MEL-2 = tested on: SK-MEL-2
SK-MEL-5 = tested on: SK-MEL-5
KM12 = tested on: KM12
NCI-H522 = tested on: NCI-H522
TK-10 = tested on: TK-10
MOLT-4 = tested on: MOLT-4
SF-295 = tested on: SF-295
COLO 205 = tested on: COLO 205
K562 = tested on: K562
NCI-H23 = tested on: NCI-H23
SN12C = tested on: SN12C
HCT-116 = tested on: HCT-116
Malme-3M = tested on: Malme-3M
A498 = tested on: A498
HL-60 = tested on: HL-60
U-251 = tested on: U-251
SNB-75 = tested on: SNB-75
OVCAR-3 = tested on: OVCAR-3
M14 = tested on: M14
RPMI-8226 = tested on: RPMI-8226
MCF7 = tested on: MCF7
Hs-578T = tested on: Hs-578T
NCI-H460 = tested on: NCI-H460
LOX IMVI = tested on: LOX IMVI
DU-145 = tested on: DU-145
MDA-MB-435 = tested on: MDA-MB-435
MDA-N = tested on: MDA-N
NCI/ADR-RES = tested on: NCI/ADR-RES
HCT-15 = tested on: HCT-15
BT-549 = tested on: BT-549
NCI-H226 = tested on: NCI-H226
ACHN = tested on: ACHN
MDA-MB-231 = tested on: MDA-MB-231
PC-3 = tested on: PC-3
XF498 = tested on: XF498
T47D = tested on: T47D
UACC-257 = tested on: UACC-257
DMS-273 = tested on: DMS-273

**Q.** How did the GI50 (IGROV-1) turn out when NC(=O)CCC(NC(=O)Cc1ccccc1)C(=O)O.NC(CCC(=O)NC(=O)Cc1ccccc1)C(=O)O (stereo not given) was run?
**A.** > 8130 µM (inactive)

**Q.** And the GI50 (DMS-114)?
**A.** > 8130 µM (inactive)

**Q.** What about the GI50 (UACC-62) of the same compound?
**A.** > 8130 µM (inactive)

**Q.** And the GI50 (HOP-92)?
**A.** > 8130 µM (inactive)

**Q.** And the GI50 (HCC 2998)?
**A.** > 8130 µM (inactive)

**Q.** What about the GI50 (RXF 393) of the same compound?
**A.** > 8130 µM (inactive)

**Q.** What about the GI50 (DLD-1) of the same compound?
**A.** > 8130 µM (inactive)

**Q.** And the GI50 (HOP-62)?
**A.** > 8130 µM (inactive)

**Q.** What about the GI50 (SK-MEL-28) of the same compound?
**A.** > 8130 µM (inactive)

**Q.** What about the GI50 (LXFL 529) of the same compound?
**A.** > 8130 µM (inactive)

**Q.** What about the GI50 (CCRF-CEM) of the same compound?
**A.** > 8130 µM (inactive)

**Q.** What about the GI50 (HT-29) of the same compound?
**A.** > 8130 µM (inactive)

**Q.** And the GI50 (SNB-19)?
**A.** > 8130 µM (inactive)

**Q.** What about the GI50 (KM-20L2) of the same compound?
**A.** > 8130 µM (inactive)

**Q.** And the GI50 (OVCAR-8)?
**A.** > 8130 µM (inactive)

**Q.** What about the GI50 (SF-268) of the same compound?
**A.** > 8130 µM (inactive)

**Q.** What about the GI50 (786-0) of the same compound?
**A.** > 8130 µM (inactive)

**Q.** And the GI50 (SK-OV-3)?
**A.** > 8130 µM (inactive)

**Q.** And the GI50 (SW-620)?
**A.** > 8130 µM (inactive)

**Q.** What about the GI50 (OVCAR-5) of the same compound?
**A.** > 8130 µM (inactive)

**Q.** And the GI50 (UO-31)?
**A.** > 8130 µM (inactive)

**Q.** What about the GI50 (M19-MEL) of the same compound?
**A.** > 8130 µM (inactive)

**Q.** And the GI50 (OVCAR-4)?
**A.** > 8130 µM (inactive)

**Q.** And the GI50 (SF-539)?
**A.** > 8130 µM (inactive)

**Q.** What about the GI50 (CAKI-1) of the same compound?
**A.** > 8130 µM (inactive)

**Q.** What about the GI50 (SR) of the same compound?
**A.** > 8130 µM (inactive)

**Q.** And the GI50 (A549)?
**A.** > 8130 µM (inactive)

**Q.** And the GI50 (HOP-18)?
**A.** > 8130 µM (inactive)

**Q.** And the GI50 (EKVX)?
**A.** > 8130 µM (inactive)

**Q.** And the GI50 (SK-MEL-2)?
**A.** > 8130 µM (inactive)

**Q.** What about the GI50 (SK-MEL-5) of the same compound?
**A.** > 8130 µM (inactive)

**Q.** And the GI50 (KM12)?
**A.** > 8130 µM (inactive)

**Q.** What about the GI50 (NCI-H522) of the same compound?
**A.** > 8130 µM (inactive)

**Q.** And the GI50 (TK-10)?
**A.** > 8130 µM (inactive)

**Q.** And the GI50 (MOLT-4)?
**A.** > 8130 µM (inactive)

**Q.** And the GI50 (SF-295)?
**A.** > 8130 µM (inactive)

**Q.** And the GI50 (COLO 205)?
**A.** > 8130 µM (inactive)

**Q.** And the GI50 (K562)?
**A.** > 8130 µM (inactive)

**Q.** And the GI50 (NCI-H23)?
**A.** > 8130 µM (inactive)

**Q.** And the GI50 (SN12C)?
**A.** > 8130 µM (inactive)

**Q.** And the GI50 (HCT-116)?
**A.** > 8130 µM (inactive)

**Q.** What about the GI50 (Malme-3M) of the same compound?
**A.** > 8130 µM (inactive)

**Q.** What about the GI50 (A498) of the same compound?
**A.** > 8130 µM (inactive)

**Q.** What about the GI50 (HL-60) of the same compound?
**A.** > 8130 µM (inactive)

**Q.** And the GI50 (U-251)?
**A.** > 8130 µM (inactive)

**Q.** What about the GI50 (SNB-75) of the same compound?
**A.** 1080 µM (inactive)

**Q.** And the GI50 (OVCAR-3)?
**A.** > 8130 µM (inactive)

**Q.** What about the GI50 (M14) of the same compound?
**A.** > 8130 µM (inactive)

**Q.** What about the GI50 (RPMI-8226) of the same compound?
**A.** > 8130 µM (inactive)

**Q.** What does the source list for Cn1c2ccccc2n2c3nc4ccccc4nc3c(C#N)c12?
**A.** GI50 (IGROV-1): > 100 µM (inactive); GI50 (DMS-114): > 100 µM (inactive); GI50 (UACC-62): 65.5 µM (inactive); GI50 (MCF7): > 75 µM (inactive); GI50 (HOP-92): > 100 µM (inactive); GI50 (HCC 2998): 9.68 µM (inactive); GI50 (RXF 393): > 42.3 µM (inactive); GI50 (Hs-578T): 56 µM (inactive); GI50 (DLD-1): < 0.01 µM (active); GI50 (NCI-H460): 5.48 µM (inactive); GI50 (HOP-62): 10 µM (inactive); GI50 (SK-MEL-28): > 100 µM (inactive); GI50 (LOX IMVI): > 100 µM (inactive); GI50 (DU-145): > 100 µM (inactive); GI50 (LXFL 529): > 100 µM (inactive); GI50 (CCRF-CEM): 60 µM (inactive); GI50 (HT-29): 14.3 µM (inactive); GI50 (SNB-19): > 100 µM (inactive); GI50 (MDA-MB-435): > 85.7 µM (inactive); GI50 (OVCAR-8): 74.1 µM (inactive); GI50 (SF-268): 81.3 µM (inactive); GI50 (786-0): 93.8 µM (inactive); GI50 (SK-OV-3): 99.5 µM (inactive); GI50 (SW-620): 74.8 µM (inactive); GI50 (MDA-N): > 100 µM (inactive); GI50 (OVCAR-5): 10 µM (inactive); GI50 (UO-31): 77.3 µM (inactive); GI50 (M19-MEL): < 0.01 µM (active); GI50 (NCI/ADR-RES): > 100 µM (inactive); GI50 (OVCAR-4): > 71.8 µM (inactive); GI50 (SF-539): 62.8 µM (inactive); GI50 (CAKI-1): > 100 µM (inactive); GI50 (SR): 49.3 µM (inactive); GI50 (A549): > 100 µM (inactive); GI50 (HOP-18): > 100 µM (inactive); GI50 (HCT-15): 9.29 µM; GI50 (EKVX): > 100 µM (inactive); GI50 (SK-MEL-2): > 4.65 µM (inactive); GI50 (SK-MEL-5): 4.4 µM (inactive); GI50 (KM12): 9.44 µM (inactive); GI50 (BT-549): > 100 µM (inactive); GI50 (NCI-H226): > 100 µM (inactive); GI50 (NCI-H522): 5.9 µM (inactive); GI50 (TK-10): > 10 µM (inactive); GI50 (MOLT-4): 57.8 µM (inactive); GI50 (SF-295): 88.3 µM (inactive); GI50 (ACHN): 75.3 µM (inactive); GI50 (COLO 205): 70 µM (inactive); GI50 (K562): 65.3 µM (inactive); GI50 (NCI-H23): > 96.8 µM (inactive); GI50 (SN12C): > 94.2 µM (inactive); GI50 (MDA-MB-231): > 97.1 µM (inactive); GI50 (HCT-116): 53.8 µM (inactive); GI50 (PC-3): > 96.8 µM (inactive); GI50 (Malme-3M): > 81.8 µM (inactive); GI50 (A498): 6.44 µM (inactive); GI50 (XF498): > 100 µM (inactive); GI50 (T47D): 21.4 µM (inactive); GI50 (HL-60): > 87.9 µM (inactive); GI50 (U-251): 74 µM (inactive); GI50 (UACC-257): > 82.6 µM (inactive); GI50 (SNB-75): > 30.8 µM (inactive); GI50 (OVCAR-3): > 100 µM (inactive); GI50 (M14): > 100 µM (inactive); GI50 (DMS-273): > 100 µM (inactive); GI50 (RPMI-8226): 71 µM (inactive)
